Assay results reported in article PMC13047053, “Crystal structure of human INPP5K with an allosteric inhibitor reveals the structural basis for species specific potency” (Scientific Reports, 2026).

Tests used:
human SHIP2 = target: T1, human SHIP2 (Homo sapiens, UniProt O15357); test: Inorganic phosphate detection assay for phosphatase inhibition; format: biochemical; conditions: 20 µM diC8-PI(3,4,5)P3, 20 min
T1 construct: full-length human SHIP2 (aa 1–1 258) containing a C-terminal FLAG-tag; FLAG (C); made in house; host or cells: Expi293 cells (pcDNA3.4, transient)
T1 sequence (O15357 1-1258): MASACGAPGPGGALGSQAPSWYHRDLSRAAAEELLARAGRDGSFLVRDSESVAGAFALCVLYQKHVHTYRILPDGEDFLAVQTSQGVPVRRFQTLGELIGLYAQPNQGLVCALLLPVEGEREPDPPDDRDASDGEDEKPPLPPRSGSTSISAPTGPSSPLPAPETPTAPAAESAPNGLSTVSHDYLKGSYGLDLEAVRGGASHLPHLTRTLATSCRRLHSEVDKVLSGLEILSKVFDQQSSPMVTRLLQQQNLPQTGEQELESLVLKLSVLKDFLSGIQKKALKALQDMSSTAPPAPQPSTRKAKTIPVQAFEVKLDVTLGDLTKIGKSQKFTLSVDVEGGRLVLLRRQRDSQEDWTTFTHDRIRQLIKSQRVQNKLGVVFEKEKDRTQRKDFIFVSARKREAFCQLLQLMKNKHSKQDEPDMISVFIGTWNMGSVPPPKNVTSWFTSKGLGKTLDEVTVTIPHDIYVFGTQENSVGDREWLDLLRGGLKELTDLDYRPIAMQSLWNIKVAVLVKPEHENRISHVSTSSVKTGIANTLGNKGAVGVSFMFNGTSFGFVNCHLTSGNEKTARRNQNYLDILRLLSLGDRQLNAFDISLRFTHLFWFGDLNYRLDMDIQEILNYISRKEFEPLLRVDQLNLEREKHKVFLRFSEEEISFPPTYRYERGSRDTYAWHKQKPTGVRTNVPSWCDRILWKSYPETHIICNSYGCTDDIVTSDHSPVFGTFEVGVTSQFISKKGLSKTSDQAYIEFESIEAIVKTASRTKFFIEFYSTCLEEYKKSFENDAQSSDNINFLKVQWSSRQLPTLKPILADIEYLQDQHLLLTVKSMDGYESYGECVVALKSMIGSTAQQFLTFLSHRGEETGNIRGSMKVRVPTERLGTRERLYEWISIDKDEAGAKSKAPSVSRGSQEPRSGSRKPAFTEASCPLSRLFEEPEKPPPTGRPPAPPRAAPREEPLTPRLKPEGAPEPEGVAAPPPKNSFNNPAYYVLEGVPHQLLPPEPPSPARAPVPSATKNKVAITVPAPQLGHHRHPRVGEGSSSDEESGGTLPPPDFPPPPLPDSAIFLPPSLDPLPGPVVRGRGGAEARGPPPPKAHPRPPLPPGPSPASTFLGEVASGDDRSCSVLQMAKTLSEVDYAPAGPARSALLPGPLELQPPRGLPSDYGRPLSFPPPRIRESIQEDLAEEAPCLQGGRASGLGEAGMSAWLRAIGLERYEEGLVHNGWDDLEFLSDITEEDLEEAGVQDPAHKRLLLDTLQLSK
Text: (§1) The protein purification is described in detail elsewhere. Briefly, full-length human INPP5K (amino acids 1–448, UniProt ID: Q9BT40), rat INPP5K (aa 1–446, UniProt ID: Q9R0B6), mouse INPP5K (aa 1–468, UniProt ID: Q8C5L6), hamster INPP5K (aa 1–453, UniProt ID: G3HTF6), guinea pig INPP5K (aa 1–473, UniProt ID: H0V8T7) containing an N-terminal FLAG-tag, full-length human SHIP2 (aa 1–1 258) containing a C-terminal FLAG-tag, and full-length human PIPP (amino acids 1–1 006) containing an N-terminal His8-tag were all cloned into the pcDNA3.4 expression vector and transiently expressed in Expi293 cells (Thermo Fisher Scientific). The PH domain of human TAPP1 (amino acids 180–404) containing an N-terminal GST-tag was expressed in a pGEX6P1 expression vector (GE Healthcare) in E. coli strain BL21 ((Merck KGaA, Darmstadt, Germany)), following IPTG induction at 37 °C for 5 h. All the FLAG-tagged INPP5Ks and hSHIP2 were purified using affinity columns containing DDDDK-tagged protein purification gel (MBL, Medical & Biological Laboratories Co., Ltd., Tokyo, Japan), followed by size-exclusion chromatography with Superdex 200 columns (GE Healthcare). His8-tagged hPIPP was purified using Ni–NTA Superflow (Qiagen) and Superdex 200 columns. The GST-tagged hTAPP1 domain was purified using a Glutathione Sepharose 4B (GE Healthcare) and Superdex 200 columns. The purity of the protein obtained was evaluated using SDS-PAGE.
(§2) The release of inorganic phosphate was measured using a PiPer Phosphate Assay Kit (Thermo Fisher Scientific), according to the manufacturer’s instructions, but with some modifications. Enzyme reactions were performed in a final volume of 10 µL per well in a 384-well nonbinding black plates (Greiner Bio-One International, GmbH, Kremsmünster, Austria). The reaction mixtures containing 20 µM diC8-PI(3,4,5)P₃ and each enzyme (human INPP5K, mouse INPP5K, rat INPP5K, hamster INPP5K, guinea pig INPP5K, human SHIP2, or human PIPP) in reaction buffer (50 mM Tris–HCl pH 7.0, 150 mM NaCl, 7.5 mM MgCl₂, 0.03% Igepal CA-630, 0.03% gelatin), with or without various concentrations of inhibitor, were incubated for 20 min at room temperature. The reactions were then stopped and detection reactions were initiated by adding 5 µL of detection mix 1 (60 mM EDTA, 12 U/mL maltose phosphorylase, and 0.6 mM maltose in 100 mM Tris–HCl pH 8.0). After incubation for 60 min at room temperature, 5 µL of detection mix 2 (8 U/mL glucose oxidase, 0.8 U/mL HRP, and 100 µM Amplex Red in 100 mM Tris–HCl pH 8.0) was added, and the mixture was incubated for a further 30 min at room temperature in the dark. The fluorescence generated was measured using an Envision plate reader at 531/590 nm (excitation/emission), and the percentage inhibition was calculated as described above.

guinea pig INPP5K = guinea pig INPP5K (Cavia porcellus, UniProt H0V8T7); test: as above; format: biochemical; conditions: 20 µM diC8-PI(3,4,5)P3, 20 min
Text: as §1, §2

Chain of guinea pig INPP5K (H0V8T7 entry or part of it): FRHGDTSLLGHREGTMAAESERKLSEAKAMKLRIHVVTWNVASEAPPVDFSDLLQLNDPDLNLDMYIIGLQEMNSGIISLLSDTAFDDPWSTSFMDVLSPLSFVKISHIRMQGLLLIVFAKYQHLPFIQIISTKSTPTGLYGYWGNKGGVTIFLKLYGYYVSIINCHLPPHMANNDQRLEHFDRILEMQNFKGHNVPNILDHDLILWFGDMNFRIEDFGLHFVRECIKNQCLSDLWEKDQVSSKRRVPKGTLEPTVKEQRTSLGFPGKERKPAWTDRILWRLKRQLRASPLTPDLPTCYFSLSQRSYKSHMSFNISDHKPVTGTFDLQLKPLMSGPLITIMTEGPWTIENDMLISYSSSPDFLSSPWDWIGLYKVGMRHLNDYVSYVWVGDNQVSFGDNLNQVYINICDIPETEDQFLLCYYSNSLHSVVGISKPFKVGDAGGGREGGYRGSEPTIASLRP

Q: What does the source list for `CC(C)c1sc(NC(=O)c2ccccc2)c(C(=O)O)c1-c1ccccc1` [CPD-1]?
A: IC50 (human SHIP2): > 100 µM; IC50 (guinea pig INPP5K): 59 µM
